pIC50, pKi: −log10 of the molar value.
molecular target: T1, Calcitonin gene-related peptide type 1 receptor (Homo sapiens, UniProt O60894+Q16602); experiment: Displacement of [125I]hCGRP from human cloned CGRP receptor expressed in HEK293 cells; type: cell-based
T1 sequence (Q16602 whole entry, one chain of several): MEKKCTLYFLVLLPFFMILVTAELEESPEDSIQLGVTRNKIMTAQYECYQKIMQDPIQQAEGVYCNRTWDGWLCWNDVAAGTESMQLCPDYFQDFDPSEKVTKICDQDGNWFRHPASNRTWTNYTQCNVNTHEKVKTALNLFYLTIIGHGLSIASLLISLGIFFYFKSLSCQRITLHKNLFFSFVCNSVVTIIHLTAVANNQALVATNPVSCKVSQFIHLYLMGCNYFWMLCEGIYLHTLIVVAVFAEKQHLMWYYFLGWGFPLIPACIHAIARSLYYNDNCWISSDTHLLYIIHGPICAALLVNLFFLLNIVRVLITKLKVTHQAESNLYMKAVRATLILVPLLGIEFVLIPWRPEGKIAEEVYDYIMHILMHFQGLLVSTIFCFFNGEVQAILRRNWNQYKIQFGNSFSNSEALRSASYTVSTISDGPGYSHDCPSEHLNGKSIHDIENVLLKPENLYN

pKi	SMILES
9.89	NCC12CC(=O)Nc3cccc(c31)N(Cc1ccc3cc4c(cc3n1)C[C@]1(C4)C(=O)Nc3ncccc31)C2=O (stereo partly drawn)
7.60	CN1C(=O)NC(=O)C12Cc1ccc(NC(=O)CN(Cc3ccc(C(F)(F)F)cc3)C(=O)C(C)(C)C)cc1C2 (racemic)
9.26	CN1C(=O)NC(=O)[C@@]12Cc1ccc(NC(=O)CN(Cc3cc(F)cc(F)c3)C(=O)C(C)(C)C)cc1C2
9.08	C[C@H](c1ccccc1)N(CC(=O)Nc1ccc2c(c1)C[C@@]1(C2)C(=O)NC(=O)N1C)C(=O)C(C)(C)C
8.10	Cc1cccc(CN(CC(=O)Nc2ccc3c(c2)CC2(C3)C(=O)NC(=O)N2C)C(=O)C(C)(C)C)c1 (racemic)
7.35	COc1cccc(CN(CC(=O)Nc2ccc3c(c2)CC2(C3)C(=O)NC(=O)N2C)C(=O)C(C)(C)C)c1 (racemic)
10.46	CC1(C)CC[C@@H](c2c(F)cccc2F)N(CC(=O)Nc2ccc3c(c2)C[C@]2(C3)C(=O)Nc3ncccc32)C1=O
8.43	CN1C(=O)NC(=O)C12Cc1ccc(NC(=O)CN(Cc3ccc(F)cc3)C(=O)C(C)(C)C)cc1C2 (racemic)
8.74	CN1C(=O)NC(=O)C12Cc1ccc(NC(=O)CN(Cc3cccc(Cl)c3)C(=O)C(C)(C)C)cc1C2 (racemic)
7.85	CN1C(=O)NC(=O)C12Cc1ccc(NC(=O)CN(Cc3ccccc3F)C(=O)C(C)(C)C)cc1C2 (racemic)
8.92	CN1C(=O)NC(=O)[C@@]12Cc1ccc(NC(=O)CN(Cc3cc(F)cc(Cl)c3)C(=O)C(C)(C)C)cc1C2
7.64	CN1C(=O)NC(=O)C12Cc1ccc(NC(=O)CN(Cc3cccc(C#N)c3)C(=O)C(C)(C)C)cc1C2 (racemic)
8.36	CN1C(=O)NC(=O)[C@@]12Cc1ccc(NC(=O)CN(Cc3cc(Cl)cc(Cl)c3)C(=O)C(C)(C)C)cc1C2
7.25	C[C@@H](c1ccccc1)N(CC(=O)Nc1ccc2c(c1)C[C@@]1(C2)C(=O)NC(=O)N1C)C(=O)C(C)(C)C
9.59	C[C@H](c1cc(F)cc(F)c1)N(CC(=O)Nc1ccc2c(c1)C[C@@]1(C2)C(=O)NC(=O)N1C)C(=O)C(C)(C)C
8.80	CN1C(=O)NC(=O)C12Cc1ccc(NC(=O)CN(Cc3cccc(F)c3)C(=O)C(C)(C)C)cc1C2 (racemic)

molecular target: T1, Calcitonin gene-related peptide type 1 receptor; experiment: Antagonist activity at human cloned CGRP receptor expressed in HEK293 cells assessed as inhibition of CGRP-induced cAMP production; type: functional, cell-based

pIC50	SMILES
9.21	NCC12CC(=O)Nc3cccc(c31)N(Cc1ccc3cc4c(cc3n1)C[C@]1(C4)C(=O)Nc3ncccc31)C2=O (stereo partly drawn)
9.92	CC1(C)CC[C@@H](c2c(F)cccc2F)N(CC(=O)Nc2ccc3c(c2)C[C@]2(C3)C(=O)Nc3ncccc32)C1=O

Reference: ChEMBL document CHEMBL1156010, “Novel CGRP receptor antagonists through a design strategy of target simplification with addition of molecular flexibility” (Bioorg Med Chem Lett, 2009)
